Source: US20080051388A1, “Novel Compounds That Inhibit Factor Xa Activity” (Morphochem Aktiengesellschaft Fur Kombinatorische Chemie, priority 2004, published 2008)

Biological target: factor Xa (Homo sapiens, UniProt P00742)
Test: Inhibitory action towards factor Xa activity (methods of WO0216312)
Assay type: biochemical
Details: read-out: IC50 value (factor Xa inhibition)
Procedure: Determinations of the inhibitory action towards factor Xa activity were carried out in accordance with the methods described in WO0216312.

factor Xa, sequence (P00742 235-488 limits assumed): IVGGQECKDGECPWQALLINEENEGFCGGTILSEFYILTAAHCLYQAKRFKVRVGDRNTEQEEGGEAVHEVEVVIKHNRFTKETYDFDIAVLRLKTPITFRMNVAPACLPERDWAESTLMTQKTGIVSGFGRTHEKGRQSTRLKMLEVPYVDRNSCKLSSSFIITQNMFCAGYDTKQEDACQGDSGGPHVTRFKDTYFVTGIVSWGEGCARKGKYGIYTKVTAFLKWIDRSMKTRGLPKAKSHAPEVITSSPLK
factor Xa, sequence (P00742 41-179 partner limits assumed): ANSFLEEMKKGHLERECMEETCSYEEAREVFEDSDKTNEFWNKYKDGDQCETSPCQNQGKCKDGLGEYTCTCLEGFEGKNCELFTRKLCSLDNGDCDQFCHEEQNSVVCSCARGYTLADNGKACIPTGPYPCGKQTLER

IC50: 0.1 to 10 nM
SMILES: CN1CCN(C(=O)CNC(=O)C(Nc2cccc(C(=N)N)c2)c2ccccc2O[C@@H]2O[C@H](CO)[C@@H](O)[C@H](O)[C@H]2O)CC1 (single isomer, unassigned) [Example 1, 2-(3-Carbamimidoyl-phenylamino)-N-[2-(4-methyl-piperazin-1-yl)-2-oxo-ethyl]-2-[2-(3,4,5-trihydroxy-6-hydroxymethyl-tetrahydro-pyran-2-yloxy)-phenyl]-acetamide]
